Where two headings read alike, the source gives them in different places.
Test system: HBsAg
Experiment: HBsAg assay: inhibition of HBsAg in HepG2.2.15 cells (chemiluminescence immunoassay of supernatant)
Assay type: cell-based, hepatitis B virus
Settings: HBsAg in supernatant at day 6 after exposure to compound, 0.5% DMSO
Outline: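 Secreted HBsAg quantified by CLIA in day-6 supernatants of HepG2.2.15 cultures given compound dilutions at 0.5% final DMSO, with one compound/medium replenishment after 2–3 days. Dose-response fits gave EC50 (50% inhibition); viability checked separately by CellTiter-Glo.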

[1] = read-out: sAg EC50, HepG2.2.15 cells
[2] = Hepatitis B virus, HepG2.2.15, 144 h, read-out: sAg EC50, HepG2.2.15 cells

Compound | EC50 [1] | EC50 [2]
Fc1cc(C2CC2c2cnc(-c3ncccn3)nc2)cc(O[C@H]2CCOC2)c1F (single isomer, unassigned) [Example 249] | 800 nM | –
Fc1cc([C@@H]2C[C@H]2c2cnc(-c3ncccn3)nc2)cc2ccccc12 (relative stereo) [Example 169, trans-5-(2-(4-Fluoronaphthalen-2-yl)cyclopropyl)-2,2′-bipyrimidine] | – | 36 nM
O[C@H]1CCN(c2cc(C3CC3c3cnc(-c4ncccn4)nc3)ccc2F)C1 (single isomer, unassigned) [Example 65] | 580 nM | –
O[C@@H]1CCN(c2cc(C3CC3c3cnc(-c4ncccn4)nc3)cc(Cl)c2F)C1 (single isomer, unassigned) [Example 126] | – | 120 nM
Fc1ccc([C@@H]2C[C@H]2c2cnc(-c3ncccn3)nc2)c2cccnc12 (relative stereo) [Example 172, trans-5-(2-([2,2′-Bipyrimidin]-5-yl)cyclopropyl)-8-fluoroquinoline] | – | 250 nM
COCCOc1cc(C2CC2c2cnc(-c3ncccn3)nc2)cc(F)c1F (single isomer, unassigned) [Example 134, trans-5-(2-(3,4-Difluoro-5-(2-methoxyethoxy)phenyl)cyclopropyl)-2,2′-bipyrimidine] | 300 nM | –
COc1cc(C2CC2c2cnc(-c3ncccn3)c3ccccc23)ccc1F (single isomer, unassigned) [Example 193, trans-4-(2-(4-Fluoro-3-methoxyphenyl)cyclopropyl)-1-(pyrimidin-2-yl)isoquinoline] | – | 43000 nM
COCCOc1cc(C2CC2c2cnc(-c3ncccn3)nc2)ccc1F (single isomer, unassigned) [Example 21, trans-5-(2-(4-Fluoro-3-(2-methoxyethoxy)phenyl)cyclopropyl)-2,2′-bipyrimidine] | 490 nM | –
Cc1nc2c(F)cc([C@@H]3C[C@H]3c3cnc(-c4ncccn4)nc3)cc2n1C(C)C (relative stereo) [Example 271, trans-6-(2-([2,2′-Bipyrimidin]-5-yl)cyclopropyl)-4-fluoro-1-isopropyl-2-methyl-1H-benzo[d]imidazole] | – | 250 nM
Fc1cc(Cl)cc(C2CC2c2cnc(-c3ncccn3)nc2)c1 (single isomer, unassigned) [Example 119, trans-5-(2-(3-Chloro-5-fluorophenyl)cyclopropyl)-2,2′-bipyrimidine] | 330 nM | –
CC1(C)CN(c2cc(C3CC3c3cnc(-c4ncccn4)nc3)cc(F)c2F)C1 (single isomer, unassigned) [Example 138, trans-5-(2-(3-(3,3-Dimethylazetidin-1-yl)-4,5-difluorophenyl)cyclopropyl)-2,2′-bipyrimidine] | 1000 nM | –
COc1cc(C2CC2c2ccc(-c3ncccn3)nn2)ccc1F (single isomer, unassigned) [Example 192, trans-3-(2-(4-Fluoro-3-methoxyphenyl)cyclopropyl)-6-(pyrimidin-2-yl)pyridazine] | 49000 nM | –
CNC(=O)c1cc(C2CC2c2cnc(-c3ncccn3)nc2)ccc1Cl (single isomer, unassigned) [Example 202, trans-5-(2-([2,2′-Bipyrimidin]-5-yl)cyclopropyl)-2-chloro-N-methylbenzamide] | 4000 nM | –
COc1cc([C@@H]2C[C@H]2c2cnc(-c3ccccn3)nc2)cc(OC)c1F (relative stereo) [Example 175, trans-5-(2-(4-Fluoro-3,5-dimethoxyphenyl)cyclopropyl)-2-(pyridin-2-yl)pyrimidine] | – | 350 nM
CO[C@@H]1CCN(c2cc(C3CC3c3cnc(-c4ncccn4)nc3)cc(Cl)c2F)C1 (single isomer, unassigned) [Example 111] | 120 nM | –
Fc1cc(C2CC2c2cnc(-c3ncccn3)nc2)cc(N2CCC3(COC3)C2)c1F (single isomer, unassigned) [Example 222, trans-6-(5-(2-([2,2′-Bipyrimidin]-5-yl)cyclopropyl)-2,3-difluorophenyl)-2-oxa-6-azaspiro[3.4]octane] | 190 nM | –
COc1ccc([C@@H]2C[C@H]2c2cnc(-c3ncccn3)nc2)c2cccnc12 (relative stereo) [Example 173, trans-5-(2-([2,2′-Bipyrimidin]-5-yl)cyclopropyl)-8-methoxyquinoline] | – | 540 nM
COCCCn1ncc2c([C@@H]3C[C@H]3c3cnc(-c4ncccn4)nc3)ccc(F)c21 (relative stereo) [Example 276, trans-4-(2-([2,2′-Bipyrimidin]-5-yl)cyclopropyl)-7-fluoro-1-(3-methoxypropyl)-1H-indazole] | – | 10 nM
Fc1ccc(C2CC2c2ccnc(-c3ncccn3)n2)cc1F (single isomer, unassigned) [Example 6, trans-4-(2-(3,4-Difluorophenyl)cyclopropyl)-2,2′-bipyrimidine] | 10000 nM | –
COCCCOc1cc(F)c(Cl)cc1C1CC1c1cnc(-c2ncccn2)nc1 (single isomer, unassigned) [Example 155, trans-5-(2-(5-Chloro-4-fluoro-2-(3-methoxypropoxy)phenyl)cyclopropyl)-2,2′-bipyrimidine] | 3000 nM | –
COc1cc(C2CC2c2cnc(-c3ncccn3)nc2)cc(OC)c1Cl (single isomer, unassigned) [Example 98, trans-5-(2-(4-Chloro-3,5-dimethoxyphenyl)cyclopropyl)-2,2′-bipyrimidine] | 350 nM | –
CO[C@@H]1CCN(c2cc(C3CC3c3cnc(-c4ncccn4)nc3)ccc2F)C1 (single isomer, unassigned) [Example 95] | 170 nM | –
Fc1cc(C2CC2c2cnc(-c3ncccn3)nc2)cc(OC2CCCC2)c1F (single isomer, unassigned) [Example 246, trans-5-(2-(3-(Cyclopentyloxy)-4,5-difluorophenyl)cyclopropyl)-2,2′-bipyrimidine] | 150 nM | –
CC(=O)N1CC[C@@H](Nc2cc(C3CC3c3cnc(-c4ncccn4)nc3)cc(F)c2F)C1 (single isomer, unassigned) [Example 227] | 270 nM | –
CS(=O)(=O)N1CCN(c2cc(C3CC3c3cnc(-c4ncccn4)nc3)ccc2F)CC1 (single isomer, unassigned) [Example 41, trans-5-(2-(4-Fluoro-3-(4-(methylsulfonyl)piperazin-1-yl)phenyl)cyclopropyl)-2,2′-bipyrimidine] | 4000 nM | –
O[C@@H]1CCN(c2cc(C3CC3c3cnc(-c4ncccn4)nc3)ccc2F)C1 (single isomer, unassigned) [Example 70] | 270 nM | –
COc1cc(OC(F)(F)F)cc([C@@H]2C[C@H]2c2cnc(-c3ncccn3)nc2)c1 (relative stereo) [Example 164, trans-5-(2-(3-Methoxy-5-(trifluoromethoxy)phenyl)cyclopropyl)-2,2′-bipyrimidine] | – | 480 nM
Fc1ccc(C2CC2c2cnc(-c3ncccn3)nc2)cc1N1CCCCC1 (single isomer, unassigned) [Example 195, trans-5-(2-(4-Fluoro-3-(piperidin-1-yl)phenyl)cyclopropyl)-2,2′-bipyrimidine] | 3000 nM | –
CN1CC[C@H](Nc2cc(C3CC3c3cnc(-c4ncccn4)nc3)cc(F)c2F)C1 (single isomer, unassigned) [Example 229] | 3000 nM | –
Fc1ccc(C2CC2c2cnc(-c3ncccn3)nc2)cc1OCC1CC1 (single isomer, unassigned) [Example 25, trans-5-(2-(3-(Cyclopropylmethoxy)-4-fluorophenyl)cyclopropyl)-2,2′-bipyrimidine] | 270 nM | –

— patent US20230083973A1, “SUBSTITUTED CYCLOPROPYL-2,2'-BIP[…], ANALOGUES THEREOF, AND METHODS USING SAME” (priority 2019, published 2023)
